IC50 data for 25 molecules are collected here from patent US8354436B2 (4SC Discovery GmbH, priority 2011, dated 2013).

What all share (format): cell-based
One experiment has as its system IL-17FF. Nature of the experiment: IL-17FF production by PHA-stimulated human PBMC (human IL-17F ELI-Pair). The note with it: PHA-stimulated human PBMC, 48 hours; column B; read-out: IC50 (IL-17FF). In outline: (§1)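 Compounds are titrated semilogarithmically for IC50, or tested at 10, 1, 0.1 and 0.01 μM for screening, on healthy-donor PBMC activated with 2 μg/ml PHA. After 48 h, secreted cytokine is measured in supernatant.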

Experiment [1] deals with PBMC from healthy human donors. Put plainly: T cell proliferation assay (PHA-stimulated human PBMC, BrdU ELISA). The note with it: PHA-stimulated human PBMC, 48 hours, column D, read-out: IC50 (Tcell proliferation). In outline:
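Healthy-donor PBMC isolated on Ficoll, seeded at 1×10⁵ cells/well in RPMI with 10% dialysed FCS, stimulated with 2 μg/ml PHA in presence of test compound. Proliferation read after 48 hours by BrdU-incorporation ELISA.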

Another experiment deals with IFN-γ. Nature of the experiment: IFN-γ production by PHA-stimulated human PBMC (OptEIA human IFN-g ELISA). The note with it: PHA-stimulated human PBMC, 48 hours; column C; read-out: IC50 (IFNγ). In outline:
as §1

For `CCOC(=O)c1c(-c2c(F)cccc2Cl)noc1-c1cnn(CCOC)c1C(F)(F)F` [IB-2, ethyl 3-(2-chloro-6-fluorophenyl)-5-(l-(2-methoxyethyl)-5-(trifluoromethyl)-1H-pyrazol-4-yl)isoxazole-4-carboxylate], the IC50 lay within 0.1 to 1 µM in the experiment with IL-17FF, 1 to 10 µM in experiment [1] and 0.1 to 1 µM with IFN-γ.

For `CCOC(=O)c1c(-c2ccncc2F)noc1-c1cnn(-c2ccncc2)c1C(F)(F)F` [IB-3, ethyl 3-(3-fluoropyridin-4-yl)-5-(1-(pyridin-4-yl)-5-(trifluoromethyl)-1H-pyrazol-4-yl)isoxazole-4-carboxylate], the IC50 in the experiment with IL-17FF lay within 0.1 to 1 µM; in experiment [1] it was 0.1 to 1 µM; with IFN-γ, 0.01 to 0.1 µM.

`CCOC(=O)c1c(-c2ccncc2F)noc1-c1cnn(-c2cccc(Cl)c2)c1C(F)(F)F` [IB-4, ethyl 5-(1-(3-chlorophenyl)-5-(trifluoromethyl)-1H-pyrazol-4-yl)-3-(3-fluoropyridin-4-yl)isoxazole-4-carboxylate]: the IC50 with IL-17FF lay in the range of 0.1 to 1 µM; in experiment [1], 1 to 10 µM; in the experiment on IFN-γ, 0.1 to 1 µM.

On to `CCOC(=O)c1c(-c2c(Cl)cncc2Cl)noc1-c1cnn(-c2ccccn2)c1C(F)(F)F` [IB-5, ethyl 3-(3,5-dichloropyridin-4-yl)-5-(1-(pyridin-2-yl)-5-(trifluoromethyl)-1H-pyrazol-4-yl)isoxazole-4-carboxylate], for which the IC50 with IL-17FF was 1 to 10 µM; in experiment [1], 1 to 10 µM; in the experiment on IFN-γ, 0.1 to 1 µM.

As for `CCOC(=O)c1c(-c2ccncc2F)noc1-c1cnn(-c2cccc(NC(C)=O)c2)c1C(F)(F)F` [IB-6, ethyl 5-(1-(3-acetamidophenyl)-5-(trifluoromethyl)-1H-pyrazol-4-yl)-3-(3-fluoropyridin-4-yl)isoxazole-4-carboxylate], the IC50 with IL-17FF was 0.01 to 0.1 µM; in experiment [1] it was 0.1 to 1 µM; in the experiment on IFN-γ, less than 0.01 µM.

Turning to `CCOC(=O)c1c(-c2c(Cl)cncc2Cl)noc1-c1cnn(-c2cccc(Cl)c2)c1C(F)(F)F` [IB-7, ethyl 5-(1-(3-chlorophenyl)-5-(trifluoromethyl)-1H-pyrazol-4-yl)-3-(3,5-dichloropyridin-4-yl)isoxazole-4-carboxylate], the values for the IC50 (with IL-17FF; in experiment [1]; in the experiment with IFN-γ) were 1 to 10 µM, 1 to 10 µM and 0.1 to 1 µM, respectively.

With `CCOC(=O)c1c(-c2ccncc2F)noc1-c1cnn(-c2ccccn2)c1C(F)(F)F` [IB-8], the IC50 (in the experiment with IL-17FF; in experiment [1]; in the experiment with IFN-γ) was 1 to 10 µM each time.

For the molecule `CCOC(=O)c1c(-c2c(Cl)cncc2Cl)noc1-c1cnn(-c2ccccc2F)c1C(F)(F)F` [IB-9, ethyl 3-(3,5-dichloropyridin-4-yl)-5-(1-(2-fluorophenyl)-5-(trifluoromethyl)-1H-pyrazol-4-yl)isoxazole-4-carboxylate], the IC50 (in the experiment with IL-17FF; in experiment [1]; in the experiment on IFN-γ) was 0.01 to 0.1 µM throughout.

With `CCOC(=O)c1c(-c2c(Cl)cncc2Cl)noc1-c1cnn(-c2ccncc2)c1C(F)(F)F` [IB-10, ethyl 3-(3,5-dichloropyridin-4-yl)-5-(1-(pyridin-4-yl)-5-(trifluoromethyl)-1H-pyrazol-4-yl)isoxazole-4-carboxylate], the IC50 (in the experiment with IL-17FF; in experiment [1]; in the experiment on IFN-γ) was 0.1 to 1 µM throughout.

As for `CCOC(=O)c1c(-c2c(Cl)cncc2Cl)noc1-c1cnn(-c2cccc(NC(C)=O)c2)c1C(F)(F)F` [IB-11, ethyl 5-(1-(3-acetamidophenyl)-5-(trifluoromethyl)-1H-pyrazol-4-yl)-3-(3,5-dichloropyridin-4-yl)isoxazole-4-carboxylate], the figures for the IC50 (in the experiment on IL-17FF; in experiment [1]; with IFN-γ) were 0.01 to 0.1 µM, 0.1 to 1 µM and 0.01 to 0.1 µM, respectively.

As for `CCOC(=O)c1c(-c2c(Cl)cncc2Cl)noc1-c1cnn(-c2cccnc2)c1C(F)(F)F` [IB-12, ethyl 3-(3,5-dichloropyridin-4-yl)-5-(1-(pyridin-3-yl)-5-(trifluoromethyl)-1H-pyrazol-4-yl)isoxazole-4-carboxylate], the IC50 in the experiment with IL-17FF lay within 0.01 to 0.1 µM; in experiment [1] it was 0.1 to 1 µM; in the experiment with IFN-γ, 0.1 to 1 µM.

In the case of `CCOC(=O)c1c(-c2ccncc2F)noc1-c1cnn(-c2ccccc2Cl)c1C(F)(F)F` [IB-13, ethyl 5-(1-(2-chlorophenyl)-5-(trifluoromethyl)-1H-pyrazol-4-yl)-3-(3-fluoropyridin-4-yl)isoxazole-4-carboxylate], the IC50 (with IL-17FF; in experiment [1]; in the experiment with IFN-γ) was 0.01 to 0.1 µM each time.

In the case of `CCOC(=O)c1c(-c2ccncc2F)noc1-c1cnn(-c2cccc(F)c2)c1C(F)(F)F` [IB-14, ethyl 5-(1-(3-fluorophenyl)-5-(trifluoromethyl)-1H-pyrazol-4-yl)-3-(3-fluoropyridin-4-yl)isoxazole-4-carboxylate], the IC50 in the experiment with IL-17FF is 0.1 to 1 µM; in experiment [1] it was 1 to 10 µM; in the experiment on IFN-γ it was 1 to 10 µM.

As for `CCOC(=O)c1c(-c2ccncc2F)noc1-c1cnn(-c2ccccc2F)c1C(F)(F)F` [IB-15, ethyl 5-(1-(2-fluorophenyl)-5-(trifluoromethyl)-1H-pyrazol-4-yl)-3-(3-fluoropyridin-4-yl)isoxazole-4-carboxylate], the IC50 was 1 to 10 µM with IL-17FF, 0.1 to 1 µM in experiment [1] and 0.1 to 1 µM with IFN-γ.

Take `CCOC(=O)c1c(-c2c(Cl)cncc2Cl)noc1-c1cnn(-c2ccccc2Cl)c1C(F)(F)F` [IB-16, ethyl 5-(1-(2-chlorophenyl)-5-(trifluoromethyl)-1H-pyrazol-4-yl)-3-(3,5-dichloropyridin-4-yl)isoxazole-4-carboxylate]: the IC50 was 0.1 to 1 µM in the experiment on IL-17FF, 1 to 10 µM in experiment [1] and 1 to 10 µM in the experiment with IFN-γ.

As for `CCOC(=O)c1c(-c2ccncc2F)noc1-c1cnn(-c2cccnc2)c1C(F)(F)F` [IB-17, ethyl 3-(3-fluoropyridin-4-yl)-5-(1-(pyridin-3-yl)-5-(trifluoromethyl)-1H-pyrazol-4-yl)isoxazole-4-carboxylate], the IC50 with IL-17FF lay in the range of 0.1 to 1 µM; in experiment [1] it was 1 to 10 µM; with IFN-γ, 1 to 10 µM.

With `COC(=O)c1c(-c2c(F)cccc2Cl)noc1-c1cnn(-c2ccccc2Cl)c1C(F)(F)F` [IB-20, methyl 3-(2-chloro-6-fluorophenyl)-5-(1-(2-chlorophenyl)-5-(trifluoromethyl)-1H-pyrazol-4-yl)isoxazole-4-carboxylate], the IC50 (in the experiment on IL-17FF; in experiment [1]; with IFN-γ) was 1 to 10 µM each time.

In the case of `COC(=O)c1c(-c2c(F)cccc2Cl)noc1-c1cnn(-c2cccc(F)c2)c1` [IB-21, methyl 3-(2-chloro-6-fluorophenyl)-5-(1-(3-fluorophenyl)-1H-pyrazol-4-yl)isoxazole-4-carboxylate], the IC50 (in the experiment on IL-17FF; in experiment [1]; with IFN-γ) was 0.1 to 1 µM in each case.

In the case of `O=C(Nc1c(-c2c(F)cccc2Cl)noc1-c1cnn(-c2cccc(F)c2)c1C(F)(F)F)C(F)(F)F` [IB-22, N-{3-(2-chloro-6-fluorophenyl)-5-[1-(3-fluorophenyl)-5-(trifluoromethyl)-1H-pyrazol-4-yl]-1,2-oxazol-4-yl}-2,2,2-trifluoroacetamide], the IC50 (in the experiment with IL-17FF; in experiment [1]; in the experiment on IFN-γ) was 1 to 10 µM throughout.

With `Fc1ccc(-n2ncc(-c3onc(-c4c(F)cccc4Cl)c3Br)c2C(F)(F)F)c(F)c1` [IB-24, 4-bromo-3-(2-chloro-6-fluorophenyl)-5-(1-(2,4-difluorophenyl)-5-(trifluoromethyl)-1H-pyrazol-4-yl)isoxazole], the IC50 (in the experiment on IL-17FF; in experiment [1]; in the experiment on IFN-γ) was 1 to 10 µM each time.

In the case of `Fc1cc(F)cc(-n2ncc(-c3onc(-c4c(F)cccc4Cl)c3Br)c2C(F)(F)F)c1` [IB-27, 4-bromo-3-(2-chloro-6-fluorophenyl)-5-(1-(3,5-difluorophenyl)-5-(trifluoromethyl)-1H-pyrazol-4-yl)isoxazole], the IC50 (in the experiment with IL-17FF; in experiment [1]; with IFN-γ) was 0.1 to 1 µM in each case.

Turning to `Fc1ccc(-n2ncc(-c3onc(-c4c(F)cccc4Cl)c3Br)c2C(F)(F)F)cc1` [IB-28, 4-bromo-3-(2-chloro-6-fluorophenyl)-5-(1-(4-fluorophenyl)-5-(trifluoromethyl)-1H-pyrazol-4-yl)isoxazole], the IC50 (in the experiment on IL-17FF; in experiment [1]; in the experiment on IFN-γ) was 0.1 to 1 µM throughout.

On to `COC(=O)c1c(-c2ccccc2)noc1-c1cnn(-c2cccc(Cl)c2)c1C(F)(F)F` [IB-30, methyl 5-(1-(3-chlorophenyl)-5-(trifluoromethyl)-1H-pyrazol-4-yl)-3-phenylisoxazole-4-carboxylate], for which the IC50 (in the experiment on IL-17FF; in experiment [1]; in the experiment with IFN-γ) was 0.1 to 1 µM each time.

In the case of `CC(C)OC(=O)c1c(-c2c(F)cccc2Cl)noc1-c1cnn(-c2cccc(Cl)c2)c1C(F)(F)F` [IB-31, isopropyl 3-(2-chloro-6-fluorophenyl)-5-(1-(3-chlorophenyl)-5-(trifluoromethyl)-1H-pyrazol-4-yl)isoxazole-4-carboxylate], the IC50 (in the experiment on IL-17FF; in experiment [1]; in the experiment on IFN-γ) was less than 0.01 µM in each case.

Consider `CCOC(=O)c1c(-c2c(F)cccc2Cl)noc1-c1cnn(-c2cccc(C#N)c2)c1C(F)(F)F` [IB-32, ethyl 3-(2-chloro-6-fluorophenyl)-5-(1-(3-cyanophenyl)-5-(trifluoromethyl)-1H-pyrazol-4-yl)isoxazole-4-carboxylate], for which the IC50 is less than 0.01 µM with IL-17FF, 0.01 to 0.1 µM in experiment [1] and less than 0.01 µM in the experiment on IFN-γ.
